# Experiments:
# Type in all cases: functional
# Enterococcus faecium [1] = experiment: Antibacterial activity against Vancomycin-susceptible Enterococcus faecium 119-39A
# Enterococcus faecalis [2] = experiment: Antibacterial activity against Enterococcus faecalis ATCC 29212
# Staphylococcus aureus [3] = experiment: Antibacterial activity against methicillin, oxacillin, and tetracycline-resistant and vancomycin and linezolid-susceptible Staphylococcus aureus NRS100 COL expressing mecA
# Staphylococcus aureus [4] = experiment: Antibacterial activity against vancomycin-resistant Staphylococcus aureus VRS2
# Staphylococcus aureus [5] = experiment: Antibacterial activity against ciprofloxacin, gentamicin, oxacillin, penicillin, and linezolid-resistant Staphylococcus aureus NRS119 expressing mecA
# Enterococcus faecium [6] = experiment: Antibacterial activity against vancomycin-resistant Enterococcus faecium C68
# [7] = test system: Staphylococcus haemolyticus; experiment: Antibacterial activity against Staphylococcus haemolyticus ATCC 29970
# Bacillus licheniformis = experiment: Antibacterial activity against Bacillus licheniformis ATCC 12759
# Staphylococcus aureus [8] = experiment: Antibacterial activity against ciprofloxacin, gentamicin, oxacillin, penicillin, and linezolid-resistant Staphylococcus aureus NRS120 expressing mecA
# Bacillus cereus = experiment: Antibacterial activity against Bacillus cereus ATCC 13061
# Staphylococcus aureus [9] = experiment: Antibacterial activity against methicillin, oxacillin, and tetracycline-resistant and vancomycin and linezolid-susceptible Staphylococcus aureus ATCC 27660 expressing mecA
# Staphylococcus aureus [10] = experiment: Antibacterial activity against vancomycin-resistant Staphylococcus aureus VRS1
# Enterococcus faecium [11] = experiment: Antibacterial activity against vancomycin-resistant Enterococcus faecium 106
# Staphylococcus aureus [12] = experiment: Antibacterial activity against Staphylococcus aureus ATCC 29213
# [13] = test system: Staphylococcus epidermidis; experiment: Antibacterial activity against Staphylococcus epidermidis ATCC 35547
# Enterococcus faecalis [14] = experiment: Antibacterial activity against Enterococcus faecalis 201
# Enterococcus faecalis [15] = experiment: Antibacterial activity against vancomycin-resistant Enterococcus faecalis 99
compound,measurement,setting,value
Oc1ccc(-c2nc(-c3ccc(Oc4ccc(C(F)(F)F)cc4)c(O)c3)no2)cc1,MIC,Enterococcus faecium [1],8 µg/mL
same,MIC,Enterococcus faecalis [2],8 µg/mL
same,MIC,Staphylococcus aureus [3],16 µg/mL
same,MIC,Staphylococcus aureus [4],8 µg/mL
same,MIC,Staphylococcus aureus [5],8 µg/mL
same,MIC,Enterococcus faecium [6],8 µg/mL
same,MIC,[7],8 µg/mL
same,MIC,Bacillus licheniformis,16 µg/mL
same,MIC,Staphylococcus aureus [8],8 µg/mL
same,MIC,Bacillus cereus,8 µg/mL
same,MIC,Staphylococcus aureus [9],16 µg/mL
same,MIC,Staphylococcus aureus [10],8 µg/mL
same,MIC,Enterococcus faecium [11],8 µg/mL
same,MIC,Staphylococcus aureus [12],2 µg/mL
same,MIC,[13],16 µg/mL
same,MIC,Enterococcus faecalis [14],8 µg/mL
same,MIC,Enterococcus faecalis [15],16 µg/mL
Oc1ccc(-c2nc(-c3ccc(Oc4ccc(C(F)(F)F)cc4)cc3Cl)no2)cc1,MIC,Enterococcus faecium [1],4 µg/mL
same,MIC,Enterococcus faecalis [2],4 µg/mL
same,MIC,Staphylococcus aureus [3],8 µg/mL
same,MIC,Staphylococcus aureus [4],2 µg/mL
same,MIC,Staphylococcus aureus [5],4 µg/mL
same,MIC,Enterococcus faecium [6],4 µg/mL
same,MIC,[7],4 µg/mL
same,MIC,Bacillus licheniformis,2 µg/mL
same,MIC,Staphylococcus aureus [8],4 µg/mL
same,MIC,Bacillus cereus,4 µg/mL
same,MIC,Staphylococcus aureus [9],8 µg/mL
same,MIC,Staphylococcus aureus [10],2 µg/mL
same,MIC,Enterococcus faecium [11],4 µg/mL
same,MIC,Staphylococcus aureus [12],2 µg/mL
same,MIC,[13],4 µg/mL
same,MIC,Enterococcus faecalis [14],4 µg/mL
same,MIC,Enterococcus faecalis [15],4 µg/mL
[N-]=[N+]=Nc1cc(-c2noc(-c3ccc(O)cc3)n2)ccc1Oc1ccc(C(F)(F)F)cc1,MIC,Enterococcus faecium [1],4 µg/mL
same,MIC,Enterococcus faecalis [2],2 µg/mL
same,MIC,Staphylococcus aureus [3],4 µg/mL
same,MIC,Staphylococcus aureus [4],2 µg/mL
same,MIC,Staphylococcus aureus [5],4 µg/mL
same,MIC,Enterococcus faecium [6],4 µg/mL
same,MIC,[7],2 µg/mL
same,MIC,Bacillus licheniformis,4 µg/mL
same,MIC,Staphylococcus aureus [8],4 µg/mL
same,MIC,Bacillus cereus,4 µg/mL
same,MIC,Staphylococcus aureus [9],4 µg/mL
same,MIC,Staphylococcus aureus [10],2 µg/mL
same,MIC,Enterococcus faecium [11],4 µg/mL
same,MIC,Staphylococcus aureus [12],2 µg/mL
same,MIC,[13],2 µg/mL
same,MIC,Enterococcus faecalis [14],4 µg/mL
same,MIC,Enterococcus faecalis [15],4 µg/mL
Oc1ccc(-c2nc(-c3ccc(Oc4ccc(C(F)(F)F)cc4)c(I)c3)no2)cc1,MIC,Staphylococcus aureus [12],4 µg/mL
O=[N+]([O-])c1cc(Oc2ccc(C(F)(F)F)cc2)ccc1-c1noc(-c2ccc(O)cc2)n1,MIC,Staphylococcus aureus [12],4 µg/mL
C=CCOc1cc(-c2noc(-c3ccc(O)cc3)n2)ccc1Oc1ccc(C(F)(F)F)cc1,MIC,Staphylococcus aureus [12],8 µg/mL
Oc1ccc(-c2nc(-c3ccc(Oc4ccc(C(F)(F)F)cc4)c(F)c3)no2)cc1,MIC,Staphylococcus aureus [12],8 µg/mL
O=[N+]([O-])c1cc(-c2noc(-c3ccc(O)cc3)n2)ccc1Oc1ccc(C(F)(F)F)cc1,MIC,Staphylococcus aureus [12],8 µg/mL
Cn1ccc2cc(-c3noc(-c4ccc(O)cc4)n3)ccc21,MIC,Staphylococcus aureus [12],8 µg/mL
Cn1ccc2ccc(-c3noc(-c4ccc(O)cc4)n3)cc21,MIC,Staphylococcus aureus [12],8 µg/mL
Oc1ccc(-c2nc(-c3ccc(Sc4ccccc4)cc3)no2)cc1,MIC,Staphylococcus aureus [12],2 µg/mL
Oc1ccc(-c2nc(-c3ccc(Sc4ccc(F)cc4)cc3)no2)cc1,MIC,Staphylococcus aureus [12],2 µg/mL
Oc1ccc(-c2nc(-c3ccc(Sc4ccc(C(F)(F)F)cc4)cc3)no2)cc1,MIC,Enterococcus faecium [1],2 µg/mL
same,MIC,Enterococcus faecalis [2],2 µg/mL
same,MIC,Staphylococcus aureus [3],2 µg/mL
same,MIC,Staphylococcus aureus [4],2 µg/mL
same,MIC,Staphylococcus aureus [5],2 µg/mL
same,MIC,Enterococcus faecium [6],2 µg/mL
same,MIC,[7],2 µg/mL
same,MIC,Bacillus licheniformis,1 µg/mL
same,MIC,Staphylococcus aureus [8],2 µg/mL
same,MIC,Bacillus cereus,8 µg/mL
same,MIC,Staphylococcus aureus [9],2 µg/mL
same,MIC,Staphylococcus aureus [10],2 µg/mL
same,MIC,Enterococcus faecium [11],2 µg/mL
same,MIC,Staphylococcus aureus [12],2 µg/mL
same,MIC,[13],2 µg/mL
same,MIC,Enterococcus faecalis [14],2 µg/mL
same,MIC,Enterococcus faecalis [15],2 µg/mL
Oc1ccc(-c2nc(-c3ccc(Nc4ccccc4)cc3)no2)cc1,MIC,Staphylococcus aureus [12],4 µg/mL
Oc1ccc(-c2nc(-c3ccc(Sc4cccc(Br)c4)cc3)no2)cc1,MIC,Staphylococcus aureus [12],8 µg/mL
CC(C)(C)OC(=O)Nc1ccc(-c2noc(-c3ccc(O)cc3)n2)cc1,MIC,Staphylococcus aureus [12],8 µg/mL
Cl.Oc1ccc(-c2nc(-c3ccc(N4CCCCC4)cc3)no2)cc1,MIC,Staphylococcus aureus [12],8 µg/mL
Nc1cc(-c2noc(-c3ccc(O)cc3)n2)ccc1Oc1ccc(C(F)(F)F)cc1,MIC,Staphylococcus aureus [12],≥ 128 µg/mL
[N-]=[N+]=Nc1cc(Oc2ccc(C(F)(F)F)cc2)ccc1-c1noc(-c2ccc(O)cc2)n1,MIC,Staphylococcus aureus [12],≥ 128 µg/mL
Oc1ccc(-c2nc(-c3ccc(Oc4ccc(C(F)(F)F)cc4)c(Cl)c3)no2)cc1,MIC,Staphylococcus aureus [12],≥ 128 µg/mL
Oc1ccc(-c2nc(-c3ccc4occc4c3)no2)cc1,MIC,Staphylococcus aureus [12],64 µg/mL
Oc1ccc(-c2nc(-c3ccc4sccc4c3)no2)cc1,MIC,Staphylococcus aureus [12],≥ 128 µg/mL
Oc1ccc(-c2nc(-c3ccc4c(ccn4Cc4ccccc4)c3)no2)cc1,MIC,Staphylococcus aureus [12],128 µg/mL
Cn1ccc2ccc(-c3noc(-c4n[nH]cc4Cl)n3)cc21,MIC,Staphylococcus aureus [12],≥ 128 µg/mL
O=C1OCc2cc(-c3noc(-c4ccc(O)cc4)n3)ccc21,MIC,Staphylococcus aureus [12],≥ 128 µg/mL
Oc1ccc(-c2nc(-c3ccc4c(c3)OCO4)no2)cc1,MIC,Staphylococcus aureus [12],≥ 128 µg/mL
Clc1c[nH]nc1-c1nc(-c2ccc3c(c2)OCO3)no1,MIC,Staphylococcus aureus [12],≥ 128 µg/mL
O=C1OCc2cc(-c3noc(-c4n[nH]cc4Cl)n3)ccc21,MIC,Staphylococcus aureus [12],≥ 128 µg/mL
c1cc2cc(-c3nc(-c4ccc5c(c4)OCO5)no3)ccc2[nH]1,MIC,Staphylococcus aureus [12],≥ 128 µg/mL
c1cc2cc(-c3nc(-c4ccc5c(c4)OCC5)no3)ccc2[nH]1,MIC,Staphylococcus aureus [12],≥ 128 µg/mL
Oc1ccc(-c2nc(-c3ccc4c(c3)C=CCO4)no2)cc1,MIC,Staphylococcus aureus [12],≥ 128 µg/mL
COc1ccc(-c2noc(-c3ccc(O)cc3)n2)cc1OC,MIC,Staphylococcus aureus [12],≥ 500 µg/mL
Oc1ccc(-c2nc(-c3ccc(Nc4ccc(C(F)(F)F)cc4)cc3)no2)cc1,MIC,Staphylococcus aureus [12],32 µg/mL
Oc1ccc(-c2nc(-c3ccc(Nc4ccc(F)cc4)cc3)no2)cc1,MIC,Staphylococcus aureus [12],≥ 128 µg/mL
Oc1ccc(-c2nc(-c3ccc(Cc4ccccc4)cc3)no2)cc1,MIC,Staphylococcus aureus [12],≥ 128 µg/mL
O=C(c1ccccc1)c1ccc(-c2noc(-c3ccc(O)cc3)n2)cc1,MIC,Staphylococcus aureus [12],≥ 128 µg/mL
Oc1ccc(-c2nc(-c3ccc(N(Cc4ccccc4)c4ccccc4)cc3)no2)cc1,MIC,Staphylococcus aureus [12],≥ 128 µg/mL
[O-][S+](c1ccccc1)c1ccc(-c2noc(-c3ccc(O)cc3)n2)cc1 (stereo not drawn),MIC,Staphylococcus aureus [12],≥ 128 µg/mL
O=S(=O)(c1ccccc1)c1ccc(-c2noc(-c3ccc(O)cc3)n2)cc1,MIC,Staphylococcus aureus [12],≥ 128 µg/mL
Cn1c2ccccc2c2cc(-c3noc(-c4ccc(O)cc4)n3)ccc21,MIC,Staphylococcus aureus [12],≥ 128 µg/mL
Oc1ccc(-c2nc(-c3ccc4[nH]c5ccccc5c4c3)no2)cc1,MIC,Staphylococcus aureus [12],≥ 128 µg/mL
Oc1ccc(-c2nc(N3CCN(c4ccccc4)CC3)no2)cc1,MIC,Staphylococcus aureus [12],≥ 128 µg/mL
Oc1ccc(-c2nc(N3CCN(c4cccc(Cl)c4)CC3)no2)cc1,MIC,Staphylococcus aureus [12],≥ 128 µg/mL
Clc1c[nH]nc1-c1nc(N2CCN(c3ccccc3)CC2)no1,MIC,Staphylococcus aureus [12],≥ 128 µg/mL
Clc1cccc(N2CCN(c3noc(-c4n[nH]cc4Cl)n3)CC2)c1,MIC,Staphylococcus aureus [12],16 µg/mL
Clc1cc(Cl)cc(N2CCN(c3noc(-c4n[nH]cc4Cl)n3)CC2)c1,MIC,Staphylococcus aureus [12],≥ 128 µg/mL
Clc1cccc(N2CCN(c3noc(-c4ccc5[nH]ccc5c4)n3)CC2)c1,MIC,Staphylococcus aureus [12],≥ 128 µg/mL
Clc1cc(Cl)cc(N2CCN(c3noc(-c4ccc5[nH]ccc5c4)n3)CC2)c1,MIC,Staphylococcus aureus [12],≥ 128 µg/mL
Cl.Nc1ccc(-c2noc(-c3ccc(O)cc3)n2)cc1,MIC,Staphylococcus aureus [12],≥ 256 µg/mL
CC(=O)Nc1ccc(-c2noc(-c3ccc(O)cc3)n2)cc1,MIC,Staphylococcus aureus [12],≥ 500 µg/mL
O=C(Nc1ccc(-c2noc(-c3ccc(O)cc3)n2)cc1)c1ccccc1,MIC,Staphylococcus aureus [12],≥ 500 µg/mL
Oc1ccc(-c2nc(-c3ccc(N4CCNCC4)cc3)no2)cc1,MIC,Staphylococcus aureus [12],32 µg/mL
CN1CCN(c2ccc(-c3noc(-c4ccc(O)cc4)n3)cc2)CC1,MIC,Staphylococcus aureus [12],≥ 128 µg/mL
Oc1ccc(-c2nc(-c3ccc(N4CCOCC4)cc3)no2)cc1,MIC,Staphylococcus aureus [12],≥ 128 µg/mL
CC(C)(C)OC(=O)N1CCN(c2ccc(-c3noc(-c4n[nH]cc4Cl)n3)cc2)CC1,MIC,Staphylococcus aureus [12],≥ 128 µg/mL
Clc1c[nH]nc1-c1nc(-c2ccc(N3CCNCC3)cc2)no1,MIC,Staphylococcus aureus [12],≥ 128 µg/mL
CN[C@H](CC(C)C)C(=O)N[C@H]1C(=O)N[C@@H](CC(N)=O)C(=O)N[C@H]2C(=O)N[C@H]3C(=O)N[C@H](C(=O)N[C@H](C(=O)O)c4cc(O)cc(O)c4-c4cc3ccc4O)[C@H](O)c3ccc(c(Cl)c3)Oc3cc2cc(c3O[C@@H]2O[C@H](CO)[C@@H](O)[C@H](O)[C@H]2O[C@H]2C[C@](C)(N)[C@H](O)[C@H](C)O2)Oc2ccc(cc2Cl)[C@H]1O [VANCOMYCIN],MIC,Enterococcus faecalis [2],2 µg/mL
same,MIC,Staphylococcus aureus [4],64 µg/mL
same,MIC,[7],2 µg/mL
same,MIC,Staphylococcus aureus [10],512 µg/mL
same,MIC,Enterococcus faecium [11],256 µg/mL
same,MIC,[13],16 µg/mL
same,MIC,Enterococcus faecalis [14],1 µg/mL
same,MIC,Enterococcus faecalis [15],128 µg/mL

# From ChEMBL document CHEMBL3627682, “Exploration of the structure-activity relationship of 1,2,4-oxadiazole antibiotics” (2015)
